# Experimental data from US9040712B2, “Thiadiazole analogs thereof and methods for treating SMN-deficiency-related-conditions” (NOVARTIS AG, priority 2013, dated 2015).
# pEC50: −log10 of the molar value. Where a name gives a salt, the structure may show the parent alone.
# System: SMN protein
# Assay: cellular SMN ELISA (SMN protein elevation)
# Assay type: cell-based
# Settings: myoblast cell line derived from SMNdelta7 mouse model; 24 hours compound treatment; concentration range 100 pM-10 uM
# In short: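 Myoblasts derived from the SMNdelta7 mouse model, 3000 cells/well, treated with compound (100 pM–10 uM) for 24 h, then lysed in modified RIPA buffer. SMN protein quantified by sandwich ELISA (anti-SMN mAb capture, rabbit polyclonal detection, HRP/TMB, 450 nm). Results given as fold activation over DMSO and EC50.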
smiles,measurement,value
"CN(c1nnc(-c2cc3c(cc2O)C(=O)CC3)s1)C1CC(C)(C)NC(C)(C)C1 [Example 92, 6-hydroxy-5-(5-(methyl(2,2,6,6-tetramethylpiperidin-4-yl)amino)-1,3,4-thiadiazol-2-yl)-2,3-dihydro-1H-inden-1-one]",pEC50,7.04
same,SMN Activity Fold (fold activation over DMSO control),2.50 fold
"CN(c1nnc(-c2ccc(-c3cn[nH]c3)cc2O)s1)C1CC(C)(C)NC(C)(C)C1 [Example 93, 2-(5-(methyl(2,2,6,6-tetramethylpiperidin-4-yl)amino)-1,3,4-thiadiazol-2-yl)-5-(1H-pyrazol-4-yl)phenol]",pEC50,6.39
same,SMN Activity Fold (fold activation over DMSO control),2.47 fold
"Cn1cc(-c2ccc(-c3nnc(N4CC5(CCCNC5)C4)s3)c(O)c2)cn1 [Example 94, 2-(5-(2,6-diazaspiro[3.5]nonan-2-yl)-1,3,4-thiadiazol-2-yl)-5-(1-methyl-1H-pyrazol-4-yl)phenol]",pEC50,6.81
same,SMN Activity Fold (fold activation over DMSO control),2.59 fold
"Cn1cc(-c2ccc(-c3nnc(N4CC5(CCNCC5)C4)s3)c(O)c2)cn1 [Example 95, 2-(5-(2,7-diazaspiro[3.5]nonan-2-yl)-1,3,4-thiadiazol-2-yl)-5-(1-methyl-1H-pyrazol-4-yl)phenol]",pEC50,7.28
same,SMN Activity Fold (fold activation over DMSO control),2.44 fold
"Oc1cc(-c2cn[nH]c2)cc(F)c1-c1nnc(N2C[C@H]3CNC[C@H]3C2)s1 [Example 96, 3-fluoro-2-(5-((3aR,6aS)-hexahydropyrrolo[3,4-c]pyrrol-2(1H)-yl)-1,3,4-thiadiazol-2-yl)-5-(1H-pyrazol-4-yl)phenol•Di-hydrochloride salt]",pEC50,8.05
same,SMN Activity Fold (fold activation over DMSO control),2.85 fold
"CN(c1nnc(-c2c(O)cc(-c3cn[nH]c3)cc2Cl)s1)C1CC(C)(C)NC(C)(C)C1 [Example 97, 3-chloro-2-(5-(methyl(2,2,6,6-tetramethylpiperidin-4-yl)amino)-1,3,4-thiadiazol-2-yl)-5-(1H-pyrazol-4-yl)phenol]",SMN Activity Fold (fold activation over DMSO control),2.45 fold
"COc1cc(-n2cccn2)ccc1-c1nnc(CC2CC(C)(C)NC(C)(C)C2)s1 [Example 98, 2-(2-methoxy-4-(1H-pyrazol-1-yl)phenyl)-5-((2,2,6,6-tetramethylpiperidin-4-yl)methyl)-1,3,4-thiadiazole]",pEC50,6.09
same,SMN Activity Fold (fold activation over DMSO control),2.19 fold
"COc1c(-c2nnc(N(C)C3CC(C)(C)NC(C)(C)C3)s2)c(=O)n(C)c2ccccc12 [Example 101, 4-methoxy-1-methyl-3-(5-(methyl(2,2,6,6-tetramethylpiperidin-4-yl)amino)-1,3,4-thiadiazol-2-yl)quinolin-2(1H)-one]",pEC50,6.13
same,SMN Activity Fold (fold activation over DMSO control),2.51 fold
"CN(c1nnc(-c2c(O)c3ccccc3n(C)c2=O)s1)C1CC(C)(C)NC(C)(C)C1 [Example 102, 4-hydroxy-1-methyl-3-(5-(methyl(2,2,6,6-tetramethylpiperidin-4-yl)amino)-1,3,4-thiadiazol-2-yl)quinolin-2(1H)-one]",pEC50,7.62
same,SMN Activity Fold (fold activation over DMSO control),2.71 fold
"CN(c1nnc(-c2cc3ccccc3[nH]c2=O)s1)C1CC(C)(C)NC(C)(C)C1 [Example 103, 3-(5-(methyl(2,2,6,6-tetramethylpiperidin-4-yl)amino)-1,3,4-thiadiazol-2-yl)quinolin-2(1H)-one]",pEC50,6.79
same,SMN Activity Fold (fold activation over DMSO control),2.47 fold
"CN(c1nnc(-c2cc3ccccc3n(C)c2=O)s1)C1CC(C)(C)NC(C)(C)C1 [Example 104, 1-methyl-3-(5-(methyl(2,2,6,6-tetramethylpiperidin-4-yl)amino)-1,3,4-thiadiazol-2-yl)quinolin-2(1H)-one]",pEC50,7.00
same,SMN Activity Fold (fold activation over DMSO control),2.76 fold
"Clc1cc(-c2cn[nH]c2)ccc1-c1nnc(N2C[C@H]3CNC[C@H]3C2)s1 [Example 105, 2-(2-chloro-4-(1H-pyrazol-4-yl)phenyl)-5-((3aR,6aS)-hexahydropyrrolo[3,4-c]pyrrol-2(1H)-yl)-1,3,4-thiadiazole Hydrochloride Salt]",pEC50,6.74
same,SMN Activity Fold (fold activation over DMSO control),2.21 fold
"Clc1cc(-c2cn[nH]c2)ccc1-c1nnc(N2CCC3(CCCNC3)C2)s1 (stereo not shown) [Example 106, 2-(2-chloro-4-(1H-pyrazol-4-yl)phenyl)-5-(2,7-diazaspiro[4.5]decan-2-yl)-1,3,4-thiadiazole•Hydrochloride Salt]",pEC50,5.78
same,SMN Activity Fold (fold activation over DMSO control),2.50 fold
"OC[C@H]1CN(c2nnc(-c3ccc(-c4cn[nH]c4)cc3Cl)s2)CCN1 [Example 107, (R)-(4-(5-(2-chloro-4-(1H-pyrazol-4-yl)phenyl)-1,3,4-thiadiazol-2-yl)piperazin-2-yl)methanol•Hydrochloride Salt]",pEC50,5.34
same,SMN Activity Fold (fold activation over DMSO control),2.06 fold
"CN(c1nnc(-c2cc3cc(C#N)ccc3s2)s1)C1CC(C)(C)NC(C)(C)C1 [Example 108, 2-(5-(methyl(2,2,6,6-tetramethylpiperidin-4-yl)amino)-1,3,4-thiadiazol-2-yl)benzo[b]thiophene-5-carbonitrile]",pEC50,6.27
same,SMN Activity Fold (fold activation over DMSO control),2.72 fold
"CN(c1nnc(-c2sc3ccccc3c2Cl)s1)C1CC(C)(C)NC(C)(C)C1 [Example 109, 5-(3-chlorobenzo[b]thiophen-2-yl)-N-methyl-N-(2,2,6,6-tetramethylpiperidin-4-yl)-1,3,4-thiadiazol-2-amine]",pEC50,6.27
same,SMN Activity Fold (fold activation over DMSO control),2.75 fold
